Results from US10040805B2, “Substituted imidazo[1,5-a]pyrazines as Btk inhibitors” (MERCK SHARP & DOHME CORP., priority 2014, dated 2018).

Biological target: BTK enzyme (full-length BTK, hBTK) (Homo sapiens (Human), UniProt Q06187)
Experiment: Btk enzyme activity assay, LANCE TR-FRET
Format: biochemical
Conditions: 50 pM hBTK, 2 μM biotin-A5-peptide, 25 μM ATP, 60 minute compound & enzyme incubation, read-out: BTK binding IC50
Method: BTK enzymatic activity was determined with the LANCE (Lanthanide Chelate Excite) TR-FRET (Time-resolved fluorescence resonance energy transfer) assay. In this assay, the potency (IC50) of each compound was determined from an eleven point (1:3 serial dilution; final compound concentration range in assay from 1 μM to 0.017 nM) titration curve using the following outlined procedure. To each well of a black non-binding surface Corning 384-well microplate (Corning Catalog #3820), 5 nL of compound (2000 fold dilution in final assay volume of 10 μL) was dispensed, followed by the addition of 7.5 μL of 1× kinase buffer (50 mM Hepes 7.5, 10 mM MgCl2, 0.01% Brij-35, 1 mM EGTA, 0.05% BSA & 1 mM DTT) containing 5.09 pg/μL (66.67 pM) of BTK enzyme (recombinant protein from baculovirus-transfected Sf9 cells: full-length BTK, 6HIS-tag cleaved). Following a 60 minute compound & enzyme incubation, each reaction was initiated by the addition of 2.5 μL 1× kinase buffer containing 8 μM biotinylated “A5” peptide (Biotin-EQEDEPEGDYFEWLE-NH2) (SEQ. ID. NO.: 1), and 100 μM ATP. The final reaction in each well of 10 μL consists of 50 pM hBTK, 2 μM biotin-A5-peptide, and 25 μM ATP. Phosphorylation reactions were allowed to proceed for 120 minutes. Reactions were immediately quenched by the addition of 20 uL of 1× quench buffer (15 mM EDTA, 25 mM Hepes 7.3, and 0.1% Triton X-100) containing detection reagents (0.626 nM of LANCE-Eu-W1024-anti-phosphoTyrosine antibody, PerkinElmer and 86.8 nM of Streptavidin-conjugated Dylight 650, Dyomics/ThermoFisher Scientific). After 60 minutes incubation with detection reagents, reaction plates were read on a PerkinElmer EnVision plate reader using standard TR-FRET protocol. Briefly, excitation of donor molecules (Eu-chelate:anti-phospho-antibody) with a laser light source at 337 nm produces energy that can be transferred to Dylight-650 acceptor molecules if this donor:acceptor pair is within close proximity. Fluorescence intensity at both 665 nm (acceptor) and 615 nm (donor) are measured and a TR-FRET ratio calculated for each well (acceptor intensity/donor intensity). IC50 values were determined by 4 parameter robust fit of TR-FRET ratio values vs. (Log10) compound concentrations.

Chain of BTK enzyme (full-length BTK, hBTK) (Q06187 whole entry): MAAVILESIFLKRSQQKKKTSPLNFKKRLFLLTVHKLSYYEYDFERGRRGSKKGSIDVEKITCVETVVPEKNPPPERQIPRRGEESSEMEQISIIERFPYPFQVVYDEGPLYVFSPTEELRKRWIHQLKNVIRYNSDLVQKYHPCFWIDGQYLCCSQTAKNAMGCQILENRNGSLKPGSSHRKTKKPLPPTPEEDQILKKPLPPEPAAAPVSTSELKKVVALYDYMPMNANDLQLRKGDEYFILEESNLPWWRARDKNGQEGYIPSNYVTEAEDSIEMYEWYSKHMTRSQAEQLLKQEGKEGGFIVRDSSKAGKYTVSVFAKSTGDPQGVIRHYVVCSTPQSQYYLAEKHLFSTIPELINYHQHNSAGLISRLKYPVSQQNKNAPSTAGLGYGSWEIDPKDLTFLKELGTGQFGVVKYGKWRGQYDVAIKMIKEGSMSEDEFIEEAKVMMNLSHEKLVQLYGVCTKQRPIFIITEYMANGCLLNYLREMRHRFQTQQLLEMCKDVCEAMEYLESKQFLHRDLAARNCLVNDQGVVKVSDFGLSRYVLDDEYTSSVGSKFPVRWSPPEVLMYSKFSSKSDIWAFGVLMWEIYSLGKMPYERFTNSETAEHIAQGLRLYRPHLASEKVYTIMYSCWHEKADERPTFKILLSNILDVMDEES

| Compound | IC50 [nM] |
| --- | --- |
| CCOc1cc(C(=O)Nc2cc(C(F)(F)F)n(C)n2)c(Cl)cc1-c1nc([C@]2(C)CC[C@H]3CN(C(C)C)CC(=O)N3C2)n2ccnc(N)c12 [Example 16, 4-{8-amino-3-[(7R,9aS)-7-methyl-2-(1-methylethyl)-4-oxooctahydro-2H-pyrido[1,2-a]pyrazin-7-yl]imidazo[1,5-a]pyrazin-1-yl}-2-chloro-5-ethoxy-N-[1-methyl-5-(trifluoromethyl)-1H-pyrazol-3-yl] benzamide] | 3.41 |
| C[C@@]1(c2nc(-c3ccc(C(=O)Nc4cc(C5CC5)ccn4)cc3F)c3c(N)nccn23)CC[C@H]2COC(=O)N2C1 [Example 10, 4-{8-amino-3-[(6R,8aS)-6-methyl-3-oxohexahydro[1,3]oxazolo[3,4-a]pyridin-6-yl]imidazo[1,5-a]pyrazin-1-yl}-N-(4-cyclopropylpyridin-2-yl)-3-fluorobenzamide] | 0.18 |
| CCOc1cc(C(=O)Nc2cc(C(F)(F)F)ccn2)ccc1-c1nc([C@]2(C)CC[C@H]3CCC(=O)N3C2)n2ccnc(N)c12 [Example 18, 4-(8-amino-3-((6R,8aS)-6-methyl-3-oxooctahydroindolizin-6-yl)imidazo[1,5-a]pyrazin-1-yl)-3-ethoxy-N-(4-(trifluoromethyl)pyridin-2-yl)benzamide] | 0.44 |
| COc1cc(C(=O)Nc2cc(C(F)(F)F)ccn2)ccc1-c1nc([C@]2(C)CC[C@H]3CCC(=O)N3C2)n2ccnc(N)c12 [Example 19, 4-(8-amino-3-((6R,8aS)-6-methyl-3-oxooctahydroindolizin-6-yl)imidazo[1,5-a]pyrazin-1-yl)-3-methoxy-N-(4-(trifluoromethyl)pyridin-2-yl)benzamide] | 0.33 |
| CCOc1cc(C(=O)Nc2cc(C(F)(F)F)n(C)n2)ccc1-c1nc([C@@]2(C)CC[C@@H]3CN(C(C)C)CC(=O)N3C2)n2ccnc(N)c12 [Example 4, 4-(8-amino-3-((7S,9aR)-2-isopropyl-7-methyl-4-oxooctahydro-1H-pyrido[1,2-a]pyrazin-7-yl)imidazo[1,5-a]pyrazin-1-yl)-3-ethoxy-N-(1-methyl-5-(trifluoromethyl)-1H-pyrazol-3-yl)benzamide bis(2,2,2-trifluoroacetate)] | 2.5 |
| CCOc1cc(C(=O)Nc2cc(C(F)(F)F)ccn2)ccc1-c1nc([C@]2(C)CC[C@H]3COC(=O)N3C2)n2ccnc(N)c12 [Example 7] | 0.59 |
| CCOc1cc(C(=O)Nc2cc(C(F)(F)F)ccn2)ccc1-c1nc([C@]2(C)CC[C@H]3CN(C(C)C)CC(=O)N3C2)n2ccnc(N)c12 [Example 14, 4-{8-amino-3-[(7R,9aS)-7-methyl-2-(1-methylethyl)-4-oxooctahydro-2H-pyrido[1,2-a]pyrazin-7-yl]imidazo[1,5-a]pyrazin-1-yl}-3-ethoxy-N-[4-(trifluoromethyl)pyridin-2-yl] benzamide] | 0.42 |
| CCOc1cc(C(=O)Nc2cc(C(F)(F)F)ccn2)ccc1-c1nc([C@@]2(C)CC[C@@H]3COC(=O)N3C2)n2ccnc(N)c12 [Example 1, 4-(8-amino-3-((6S,8aR)-6-methyl-3-oxohexahydro-1H-oxazolo[3,4-a]pyridin-6-yl)imidazo[1,5-a]pyrazin-1-yl)-3-ethoxy-N-(4-(trifluoromethyl)pyridin-2-yl)benzamide] | 0.61 |
| C[C@@]1(c2nc(-c3ccc(C(=O)Nc4cc(C(F)(F)F)ccn4)cc3)c3c(N)nccn23)CC[C@H]2CCC(=O)N2C1 [Example 17, 4-(8-amino-3-((6R,8aS)-6-methyl-3-oxooctahydroindolizin-6-yl)imidazo[1,5-a]pyrazin-1-yl)-N-(4-(trifluoromethyl)pyridin-2-yl)benzamide] | 0.18 |
| CCOc1cc(C(=O)Nc2cc(C(F)(F)F)ccn2)ccc1-c1nc(C2(C)CCC3CCN(C)C(=O)N3C2)n2ccnc(N)c12 (stereo not shown) [Example 12, 4-[8-amino-3-(2,7-dimethyl-1-oxooctahydro-1H-pyrido[1,2-c]pyrimidin-7-yl)imidazo[1,5-a]pyrazin-1-yl}-3-ethoxy-N-[4-(trifluoromethyl)pyridin-2-yl] benzamide] | 411 |
| CCOc1cc(C(=O)Nc2cc(C(F)(F)F)ccn2)ccc1-c1nc(C2(C)CCC3CCN(C)C(=O)N3C2)n2ccnc(N)c12 (stereo not shown) [Example 13, 4-[8-amino-3-(2,7-dimethyl-1-oxooctahydro-1H-pyrido[1,2-c]pyrimidin-7-yl)imidazo[1,5-a]pyrazin-1-yl]-3-ethoxy-N-[4-(trifluoromethyl)pyridin-2-yl] benzamide] | 10 |
| CCOc1cc(C(=O)Nc2cc(C(F)(F)F)n(C)n2)ccc1-c1nc([C@]2(C)CC[C@H]3CN(C(C)C)CC(=O)N3C2)n2ccnc(N)c12 [Example 15, 4-{8-amino-3-[(7R,9aS)-7-methyl-2-(1-methylethyl)-4-oxooctahydro-2H-pyrido[1,2-a]pyrazin-7-yl]imidazo[1,5-a]pyrazin-1-yl}-3-ethoxy-N-[1-methyl-5-(trifluoromethyl)-1H-pyrazol-3-yl]benzamide] | 1.27 |

More lines, in order of falling IC50, values ahead:

| IC50 [nM] | Compound |
| --- | --- |
| 1000 | CCOc1cc(C(=O)Nc2cc(C(F)(F)F)ccn2)ccc1-c1nc(C2(CC)CCC3CCN(CC)C(=O)N3C2)n2ccnc(N)c12 (single isomer, unassigned) [Example 5, 4-[8-amino-3-(2,7-diethyl-1-oxooctahydro-1H-pyrido[1,2-c]pyrimidin-7-yl)imidazo[1,5-a]pyrazin-1-yl]-3-ethoxy-N-[4-(trifluoromethyl)pyridin-2-yl] benzamide] |
| 215 | CCOc1cc(C(=O)Nc2cc(C(F)(F)F)ccn2)ccc1-c1nc(C2(CC)CCC3CCN(CC)C(=O)N3C2)n2ccnc(N)c12 (single isomer, unassigned) [Example 6, 4-[8-amino-3-(2,7-diethyl-1-oxooctahydro-1H-pyrido[1,2-c]pyrimidin-7-yl)imidazo[1,5-a]pyrazin-1-yl]-3-ethoxy-N-[4-(trifluoromethyl)pyridin-2-yl] benzamide] |
| 3.07 | CCOc1cc(C(=O)Nc2cc(C(F)(F)F)n(C)n2)ccc1-c1nc([C@@]2(C)CC[C@@H]3COC(=O)N3C2)n2ccnc(N)c12 [Example 2, 4-(8-amino-3-((6S,8aR)-6-methyl-3-oxohexahydro-1H-oxazolo[3,4-a]pyridin-6-yl)imidazo[1,5-a]pyrazin-1-yl)-3-ethoxy-N-(1-methyl-5-(trifluoromethyl)-1H-pyrazol-3-yl)benzamide] |
| 0.7 | CCOc1cc(C(=O)Nc2cc(C(F)(F)F)n(C)n2)ccc1-c1nc([C@]2(C)CC[C@H]3COC(=O)N3C2)n2ccnc(N)c12 [Example 8, 4-{8-amino-3-[(6R,8aS)-6-methyl-3-oxohexahydro[1,3]oxazolo[3,4-a]pyridin-6-yl]imidazo[1,5-a]pyrazin-1-yl}-3-ethoxy-N-[1-methyl-5-(trifluoromethyl)-1H-pyrazol-3-yl]benzamide] |
| 0.61 | CCOc1cc(C(=O)Nc2cc(C(F)(F)F)ccn2)ccc1-c1nc([C@@]2(C)CC[C@@H]3CN(C(C)C)CC(=O)N3C2)n2ccnc(N)c12 [Example 3, 4-(8-amino-3-((7S,9aR)-2-isopropyl-7-methyl-4-oxooctahydro-1H-pyrido[1,2-a]pyrazin-7-yl)imidazo[1,5-a]pyrazin-1-yl)-3-ethoxy-N-(4-(trifluoromethyl)pyridin-2-yl)benzamide bis(2,2,2-trifluoroacetate)] |
| 0.59 | CCOc1cc(C(=O)Nc2cc(C(F)(F)F)ccn2)cc(F)c1-c1nc([C@]2(C)CC[C@H]3COC(=O)N3C2)n2ccnc(N)c12 [Example 11, 4-{8-amino-3-[(6R,8aS)-6-methyl-3-oxohexahydro[1,3]oxazolo[3,4-a]pyridin-6-yl]imidazo[1,5-a]pyrazin-1-yl}-3-ethoxy-5-fluoro-N-[4-(trifluoromethyl)pyridin-2-yl] benzamide] |
| 0.22 | C[C@@]1(c2nc(-c3ccc(C(=O)Nc4cc(C(F)(F)F)ccn4)cc3F)c3c(N)nccn23)CC[C@H]2COC(=O)N2C1 [Example 9, 4-{8-amino-3-[(6R,8aS)-6-methyl-3-oxohexahydro[1,3]oxazolo[3,4-a]pyridin-6-yl]imidazo[1,5-a]pyrazin-1-yl}-3-fluoro-N-[4-(trifluoromethyl)pyridin-2-yl] benzamide] |
